What is called MIC50 is the lowest concentration that inhibits either 50% of growth or 50% of the strains tested, depending on the study. What is called MIC90 is an inhibitory concentration at the 90% level, which refers to growth in some studies and to a panel of isolates in others.

This passage reports Activity, MIC50 and MIC90 results from ChEMBL document CHEMBL1275550, “In vitro activity of doripenem, a carbapenem for the treatment of challenging infections caused by gram-negative bacteria, against recent clinical isolates from the United States” (2008).

Common to all, as to format: functional
In assay [1] the test system is Pseudomonas aeruginosa. In words: Antimicrobial activity against imipenem susceptible Pseudomonas aeruginosa assessed as resistant isolate by broth microdilution method in presence of Tazobactam.
Assay [2] relates to Pseudomonas aeruginosa. In words: Antimicrobial activity against ceftazidime susceptible Pseudomonas aeruginosa assessed as susceptible isolate by broth microdilution method in presence of Tazobactam. A general note: Broth dilution looks for growth in wells or tubes with falling amounts of substance.
Assay [3] concerns Enterobacteriaceae. The assay is described as follows: Antimicrobial activity against Ceftazidime non-susceptible Enterobacteriaceae assessed as resistant isolate by broth microdilution method in presence of tazobactam.
The test system of assay [4] is Enterobacteriaceae. In words: Antimicrobial activity against ceftazidime-susceptible Enterobacteriaceae assessed as susceptible isolate by broth microdilution method in presence of Tazobactam.
Assay [5] relates to Escherichia coli. In words: Antimicrobial activity against ESBL producing Escherichia coli assessed as intermediate isolate by broth microdilution method in presence of Tazobactam.
The test system of assay [6] is Klebsiella pneumoniae. The assay is described as follows: Antimicrobial activity against Non-ESBL Klebsiella pneumoniae assessed as resistant isolate by broth microdilution method in presence of Tazobactam.
Assay [7] concerns Serratia marcescens. The assay is described as follows: Antimicrobial activity against ceftazidime susceptible Serratia marcescens assessed as susceptible isolate by broth microdilution method in presence of Tazobactam.
In assay [8] the test system is Enterobacteriaceae. The assay is described as follows: Antimicrobial activity against Ceftazidime non-susceptible Enterobacteriaceae assessed as intermediate isolate by broth microdilution method in presence of tazobactam.
For assay [9], the system named is Pseudomonas aeruginosa. In words: Antimicrobial activity against Ceftazidime non-susceptible Pseudomonas aeruginosa assessed as intermediate isolate by broth microdilution method in presence of tazobactam.
Assay [10] deals with Pseudomonas aeruginosa. In words: Antimicrobial activity against Pseudomonas aeruginosa isolated from ICU patient assessed as intermediate isolate by broth microdilution method.
Assay [11] concerns Citrobacter. In words: Antimicrobial activity against Citrobacter with nonderepressed AmpC beta-lactamsae by broth microdilution method in presence of Tazobactam.
For assay [12], the system named is Klebsiella pneumoniae. The assay is described as follows: Antimicrobial activity against ESBL producing Klebsiella pneumoniae assessed as resistant isolate by broth microdilution method in presence of Tazobactam.
Assay [13] concerns Serratia marcescens. The assay is described as follows: Antimicrobial activity against Ceftazidime susceptible Serratia marcescens assessed as resistant isolate by broth microdilution method in presence of tazobactam.
Assay [14] relates to Escherichia coli. The assay is described as follows: Antimicrobial activity against Non-ESBL Escherichia coli by broth microdilution method in presence of Tazobactam.
Assay [15] deals with Pseudomonas aeruginosa. The assay is described as follows: Antimicrobial activity against ceftazidime non-susceptible Pseudomonas aeruginosa assessed as susceptible isolate by broth microdilution method in presence of Tazobactam.
Assay [16] has as its system Pseudomonas aeruginosa. The assay is described as follows: Antimicrobial activity against Pseudomonas aeruginosa isolated from non-ICU patient assessed as susceptible isolate by broth microdilution method in presence of Tazobactam.
The next assay concerns Acinetobacter. The assay is described as follows: Antimicrobial activity against imipenem non-susceptible Acinetobacter assessed as susceptible isolate by broth microdilution method in presence of Tazobactam.
For assay [17], the system named is Pseudomonas aeruginosa. The assay is described as follows: Antimicrobial activity against Pseudomonas aeruginosa isolated from ICU patient assessed as susceptible isolate by broth microdilution method in presence of Tazobactam.
In assay [18] the test system is Enterobacteriaceae. In words: Antimicrobial activity against ceftazidime non-susceptible Enterobacteriaceae by broth microdilution method in presence of Tazobactam.
Assay [19] has as its system Pseudomonas aeruginosa. In words: Antimicrobial activity against imipenem non-susceptible Pseudomonas aeruginosa by broth microdilution method in presence of Tazobactam.
In assay [20] the test system is Pseudomonas aeruginosa. In words: Antimicrobial activity against Pseudomonas aeruginosa isolated from non-ICU patient assessed as resistant isolate by broth microdilution method in presence of Tazobactam.
Assay [21] relates to Proteus mirabilis. The assay is described as follows: Antimicrobial activity against Non-ESBL Proteus mirabilis by broth microdilution method in presence of Tazobactam.
Assay [22] concerns Citrobacter. In words: Antimicrobial activity against Citrobacter with derepressed AmpC beta-lactamsae assessed as susceptible isolate by broth microdilution method in presence of Tazobactam.
The test system of assay [23] is Klebsiella pneumoniae. In words: Antimicrobial activity against ESBL producing Klebsiella pneumoniae assessed as susceptible isolate by broth microdilution method in presence of Tazobactam.
Assay [24] has as its system Pseudomonas aeruginosa. The assay is described as follows: Antimicrobial activity against Ceftazidime susceptible Pseudomonas aeruginosa assessed as intermediate isolate by broth microdilution method in presence of tazobactam.
In assay [25] the test system is Serratia marcescens. The assay is described as follows: Antimicrobial activity against ceftazidime non-susceptible Serratia marcescens assessed as resistant isolate by broth microdilution method in presence of Tazobactam.
Assay [26] deals with Enterobacteriaceae. The assay is described as follows: Antimicrobial activity against ceftazidime non-susceptible Enterobacteriaceae assessed as susceptible isolate by broth microdilution method in presence of Tazobactam.
Assay [27] relates to Pseudomonas aeruginosa. In words: Antimicrobial activity against imipenem susceptible Pseudomonas aeruginosa assessed as susceptible isolate by broth microdilution method in presence of Tazobactam.
For assay [28], the system named is Klebsiella pneumoniae. In words: Antimicrobial activity against Non-ESBL Klebsiella pneumoniae by broth microdilution method in presence of Tazobactam.
Assay [29] relates to Klebsiella pneumoniae. In words: Antimicrobial activity against Non-ESBL Klebsiella pneumoniae assessed as intermediate isolate by broth microdilution method in presence of Tazobactam.
Assay [30] relates to Serratia marcescens. In words: Antimicrobial activity against ceftazidime susceptible Serratia marcescens by broth microdilution method in presence of Tazobactam.
Assay [31] concerns Escherichia coli. In words: Antimicrobial activity against Non-ESBL Escherichia coli assessed as susceptible isolate by broth microdilution method in presence of Tazobactam.
The test system of assay [32] is Enterobacteriaceae. In words: Antimicrobial activity against ceftazidime-susceptible Enterobacteriaceae assessed as resistant isolate by broth microdilution method in presence of Tazobactam.
Assay [33] relates to Pseudomonas aeruginosa. The assay is described as follows: Antimicrobial activity against ceftazidime non-susceptible Pseudomonas aeruginosa by broth microdilution method in presence of Tazobactam.
Assay [34] deals with Klebsiella pneumoniae. The assay is described as follows: Antimicrobial activity against Non-ESBL Klebsiella pneumoniae assessed as susceptible isolate by broth microdilution method in presence of Tazobactam.
Assay [35] concerns Pseudomonas aeruginosa. In words: Antimicrobial activity against imipenem non-susceptible Pseudomonas aeruginosa assessed as resistant isolate by broth microdilution method in presence of Tazobactam.
Assay [36] has as its system Pseudomonas aeruginosa. In words: Antimicrobial activity against ceftazidime susceptible Pseudomonas aeruginosa assessed as resistant isolate by broth microdilution method in presence of Tazobactam.
Assay [37] has as its system Citrobacter. The assay is described as follows: Antimicrobial activity against Citrobacter with nonderepressed AmpC beta-lactamsae assessed as resistant isolate by broth microdilution method in presence of Tazobactam.
For assay [38], the system named is Proteus mirabilis. The assay is described as follows: Antimicrobial activity against ESBL producing Proteus mirabilis assessed as intermediate isolate by broth microdilution method in presence of Tazobactam.
Assay [39] deals with Escherichia coli. The assay is described as follows: Antimicrobial activity against ESBL producing Escherichia coli by broth microdilution method in presence of Tazobactam.
Assay [40] has as its system Klebsiella pneumoniae. The assay is described as follows: Antimicrobial activity against ESBL producing Klebsiella pneumoniae by broth microdilution method in presence of Tazobactam.
Assay [41] deals with Enterobacter cloacae. In words: Antimicrobial activity against Enterobacter cloacae with nonderepressed AmpC beta-lactamsae by broth microdilution method in presence of Tazobactam.
Assay [42] concerns Enterobacter cloacae. In words: Antimicrobial activity against Enterobacter cloacae with derepressed AmpC beta-lactamsae assessed as resistant isolate by broth microdilution method in presence of Tazobactam.
In assay [43] the test system is Pseudomonas aeruginosa. The assay is described as follows: Antimicrobial activity against imipenem susceptible Pseudomonas aeruginosa assessed as resistant isolate by broth microdilution method.
Assay [44] relates to Escherichia coli. In words: Antimicrobial activity against Non-ESBL Escherichia coli assessed as resistant isolate by broth microdilution method.
Assay [45] deals with Enterobacter cloacae. In words: Antimicrobial activity against Enterobacter cloacae with derepressed AmpC beta-lactamsae assessed as resistant isolate by broth microdilution method.
Assay [46] deals with Citrobacter. In words: Antimicrobial activity against Citrobacter assessed as resistant isolate by broth microdilution method.

Turning to `CCN1CCN(C(=O)N[C@@H](C(=O)N[C@@H]2C(=O)N3[C@@H]2SC(C)(C)[C@@H]3C(=O)O)c2ccccc2)C(=O)C1=O` [PIPERACILLIN], the Activity was determined as 9.4% in the assay on Pseudomonas aeruginosa [1]; 96.3% in the assay on Pseudomonas aeruginosa [2]; 63.8% in the assay with Enterobacteriaceae [3]; 95.8% in the assay with Enterobacteriaceae [4]; 16.7% in the assay with Escherichia coli [5]; 1.7% with Klebsiella pneumoniae [6]. The Activity came to 93.6% with Serratia marcescens [7]; 20.6% with Enterobacteriaceae [8]; 0% with Pseudomonas aeruginosa [9]; 77.3% with Klebsiella pneumoniae [12]; 1.9% in the assay with Serratia marcescens [13]; 17.3% in the assay with Pseudomonas aeruginosa [15]. Moreover, the Activity was 87% with Pseudomonas aeruginosa [16]; 0% in the assay on Acinetobacter; 78.4% in the assay with Pseudomonas aeruginosa [17]; 13% in the assay with Pseudomonas aeruginosa [20]; 3.6% in the assay on Citrobacter [22]; 11.4% in the assay with Klebsiella pneumoniae [23]. Besides, the Activity came to 0% in the assay on Pseudomonas aeruginosa [24]; 50% in the assay on Serratia marcescens [25]; 15.6% in the assay on Enterobacteriaceae [26]; 90.6% with Pseudomonas aeruginosa [27]; 2.4% in the assay on Klebsiella pneumoniae [29]; 93.6% in the assay with Escherichia coli [31]. Also, the Activity with Enterobacteriaceae [32] is 1.9%; with Klebsiella pneumoniae [34], 95.9%; in the assay on Pseudomonas aeruginosa [35], 27.1%; with Pseudomonas aeruginosa [36] it was 3.7%; with Citrobacter [37], 2.6%; in the assay with Proteus mirabilis [38] it was 0%. For the same molecule, in the assay on Enterobacter cloacae [42], the Activity turned out to be 82.5%. The MIC50 came out at 16 mg/L with Pseudomonas aeruginosa [10]; 4 mg/L in the assay with Citrobacter [11]; 4 mg/L in the assay on Escherichia coli [14]; 128 mg/L with Enterobacteriaceae [18]; 16 mg/L in the assay on Pseudomonas aeruginosa [19]; 0.5 mg/L with Proteus mirabilis [21]. Also, the MIC50 was 4 mg/L in the assay on Klebsiella pneumoniae [28]; 4 mg/L with Serratia marcescens [30]; greater than 128 mg/L with Pseudomonas aeruginosa [33]; 16 mg/L in the assay with Escherichia coli [39]; greater than 128 mg/L with Klebsiella pneumoniae [40]; 4 mg/L in the assay with Enterobacter cloacae [41]. The MIC90 was greater than 128 mg/L with Pseudomonas aeruginosa [10]; 16 mg/L with Citrobacter [11]; 8 mg/L in the assay on Escherichia coli [14]; greater than 128 mg/L with Enterobacteriaceae [18]; greater than 128 mg/L in the assay with Pseudomonas aeruginosa [19]; 2 mg/L in the assay with Proteus mirabilis [21]. Besides, the MIC90 was 16 mg/L in the assay with Klebsiella pneumoniae [28]; 16 mg/L in the assay on Serratia marcescens [30]; greater than 128 mg/L in the assay with Pseudomonas aeruginosa [33]; greater than 128 mg/L with Escherichia coli [39]; greater than 128 mg/L with Klebsiella pneumoniae [40]; 16 mg/L in the assay with Enterobacter cloacae [41].
In the case of `CC(C)(O/N=C(\C(=O)N[C@@H]1C(=O)N2C(C(=O)[O-])=C(C[n+]3ccccc3)CS[C@H]12)c1csc(N)n1)C(=O)O` [CEFTAZIDIME], the Activity in the assay with Pseudomonas aeruginosa [43] is reported as 6.9%; in the assay with Escherichia coli [44], 0.9%; with Enterobacter cloacae [45], 97.1%.
Turning to `C[C@@H](O)[C@H]1C(=O)N2C(C(=O)O)=C(SCCNC=N)C[C@H]12` [IMIPENEM ANHYDROUS], the Activity in the assay with Citrobacter [46] is recorded as 0.2%.
